In patent US10851115B2, “Heterocyclic compounds as RSV inhibitors” (Enanta Pharmaceuticals, Inc., priority 2017, dated 2020):
pEC50: −log10 of the molar value.

tested on: Human RSV-A (“Long” strain); test: RSV in vitro cytoprotection assay in HEp-2 cells (ATPlite readout); format: cell-based; settings: human respiratory syncytial virus, 96 h; HEp-2 cells, 4-day incubation, ATPlite; read-out: Human RSV-A (“Long” strain) EC50
Source text: RSV is a single stranded negative sense RNA virus that causes respiratory tract infections which can be dangerous to infants, the elderly, and immunosuppressed individuals. Currently there is no vaccine, and therapeutic options are both costly and of limited effectiveness. These approved treatments are Ribavirin, and Palivizumab/Synagis (a monoclonal antibody). RSV has two genotypes, A and B, which differ primarily in the structure of the virus' surface “G” attachment protein. Our current primary screen focusses on RSV-A and uses an in vitro cytoprotection assay where compounds are added in 2-fold dilutions to cells which are then subjected to fully replicative viral particles. Cell viability is measured several days later along with separate measurements of compound cytotoxicity. This report focuses on the results of our most recent screening of compounds.
HEp-2 cells, (originally derived from tumors grown in irradiated-cortisonised weanling rats that had been injected with epidermoid carcinoma tissue from a person's larynx, but later found to be indistinguishable from HeLa cells by PCR DNA analysis), were used for the culturing of genotype A, “Long” strain RSV. Flasks were inoculated with RSV and viral stocks were collected once cytopathic effect (CPE) was greater than 90%. Viral stocks in 25% sucrose media were snap frozen using liquid nitrogen to increase viral stability. Viral stock titers were quantified by tissue culture infectious dose 50% (TCID50) using 8,000 cells per well and 3-fold viral dilutions across a 96-well plate, cultured for 4 days.
Following extensive parameter testing, the final assay is run as follows: HEp-2 cells are seeded into the inner 60 wells of a 96-well plate at 8,000 cells per well in a volume of 50 μL using Growth Media (DMEM without phenol red, 1% L-Glut, 1% Penn/Strep, 1% nonessential amino acids, 10% FBS). 2-Fold serial dilutions of control and test compounds are added to the wells in duplicate in a total volume of 25 μL. Viral stock is then added to the wells in a volume of 25 μL, bringing the total volume of each well to 100 μL. Each 96-well plate has a control column of 6 wells with cells and virus but no compound (negative control, max CPE), a column with cells but no compound or virus (positive control, minimum CPE), and a column with no cells or virus or compound (background plate/reagent control). The control wells with cells but no virus are given an additional 25 uL of growth media containing an equal quantity of sucrose as those wells receiving the viral stock in order to keep consistent in media and volume conditions. The outer wells of the plate are filled with 125 μL of growth media to act as a thermal and evaporative moat around the test wells. Following a 4-day incubation period, the plates are read using ATPlite (50 uL added per well), which quantifies the amount of ATP (a measure of cell health) present in each well. Assay plates are read using the Envision luminometer. In parallel, cytotoxicity is examined on an additional 96-well plate treated in an identical manner, but substituting the 25 μL of viral stock for 25 μL of growth media. […] EC50 ranges are as follows: A<0.01 μM; B 0.01-0.05 μM; C>0.05 μM.

Structure (SMILES)	pEC50
Cc1cnc(N2CC3(CCOCC3)C2)c(C(=O)Nc2ccc(C(=O)N3CCc4cc(-c5nc6ccccc6[nH]5)sc4-c4ncccc43)cc2)c1 [Example 38]	7.30 to 8.00
Cc1cnc(N2CC3(CCOCC3)C2)c(C(=O)Nc2ccc(C(=O)N3CCc4c(sc(C(=O)Nc5c(F)cccc5C(F)(F)F)c4F)-c4ncccc43)cc2)c1 [Example 77]	7.30 to 8.00
Cc1cnc(N2CC3(CCOCC3)C2)c(C(=O)Nc2ccc(C(=O)N3CCc4cc(C(=O)Nc5cccnn5)sc4-c4ncccc43)cc2)c1 [Example 31]	> 8.00
Cc1cnc(N2CC3(CCOCC3)C2)c(C(=O)Nc2ccc(C(=O)N3CCc4cc(C(=O)Nc5cccnc5C)sc4-c4ncccc43)cc2)c1 [Example 32]	> 8.00
Cc1cnc(N2CC3(CCOCC3)C2)c(C(=O)Nc2ccc(C(=O)N3CCc4cc(C(=O)NCc5cccnc5)sc4-c4ncccc43)cc2)c1 [Example 36]	7.30 to 8.00
Cc1cnc(N2CC3(CCOCC3)C2)c(C(=O)Nc2ccc(C(=O)N3CCc4cc(C(=O)NCC5CCCO5)sc4-c4ncccc43)cc2)c1 (centres unmarked) [Example 29]	> 8.00
O=C(Nc1c(F)cccc1F)c1cc2c(s1)-c1ccncc1N(C(=O)c1ccc(NC(=O)c3cccnc3N3CC4(CCOCC4)C3)cc1)CC2 [Example 1]	< 7.30
Cc1cnc(N2CC3(CCOCC3)C2)c(C(=O)Nc2ccc(C(=O)N3CCc4c(sc(C(=O)Nc5c(F)cccc5F)c4F)-c4ncccc43)cc2)c1 [Example 70, N-(2,6-difluorophenyl)-8-fluoro-5-(4-(5-methyl-2-(7-oxa-2-azaspiro[3.5]nonan-2-yl)nicotinamido)benzoyl)-6,7-dihydro-5H-pyrido[3,2-b]thieno[2,3-d]azepine-9-carboxamide]	> 8.00
Cc1cnc(N2CC3(CCOCC3)C2)c(C(=O)Nc2ccc(C(=O)N3CCc4c(sc(C(=O)Nc5c(F)cccc5Cl)c4F)-c4ncccc43)cc2)c1 [Example 76]	> 8.00
Cc1cnc(N2CC3(CCOCC3)C2)c(C(=O)Nc2ccc(C(=O)N3CCc4cc(C(=O)Nc5c(C)cccc5C#N)sc4-c4ncccc43)cc2)c1 [Example 8]	> 8.00
Cc1ccc(C(=O)Nc2ccc(C(=O)N3CCc4c(sc(C(=O)Nc5c(F)cccc5C(F)(F)F)c4F)-c4ncccc43)cc2)c(N2CC3(CCOCC3)C2)n1 [Example 87]	> 8.00
Cc1cnc(N2CC3(CCOCC3)C2)c(C(=O)Nc2ccc(C(=O)N3CCc4cc(C(=O)NCc5ccco5)sc4-c4ncccc43)cc2)c1 [Example 24]	> 8.00
Cc1cnc(N2CC3(CCOCC3)C2)c(C(=O)Nc2ccc(C(=O)N3CCc4c(sc(-c5nc6ccccc6[nH]5)c4F)-c4ncccc43)cc2)c1 [Example 71]	> 8.00
Cc1cnc(N2CCC3(CC2)COC3)c(C(=O)Nc2ccc(C(=O)N3CCc4cc(C(=O)Nc5c(F)cccc5C(F)(F)F)sc4-c4ncccc43)cc2)c1 [Example 94]	7.30 to 8.00
COCC1(NC(=O)c2cc3c(s2)-c2ncccc2N(C(=O)c2ccc(NC(=O)c4cc(C)cnc4N4CC5(CCOCC5)C4)cc2)CC3)CCC1 [Example 25]	> 8.00
Cc1cnc(N2CC3(CCOCC3)C2)c(C(=O)Nc2ccc(C(=O)N3CCc4cc(-c5nc6cccc(Cl)c6[nH]5)sc4-c4ncc(F)cc43)cc2)c1 [Example 63]	> 8.00
Cc1ccc(C(=O)Nc2ccc(C(=O)N3CCc4cc(C(=O)Nc5c(F)cccc5C(F)(F)F)sc4-c4ncccc43)cc2)c(N2CC3(CCOCC3)C2)n1 [Example 45]	> 8.00
Cc1cnc(N2CC3(CCOCC3)C2)c(C(=O)Nc2ccc(C(=O)N3CCc4cc(C(=O)NC[C@H]5CCCO5)sc4-c4ncccc43)cc2)c1 [Example 28]	> 8.00
Cc1cnc(N2CC3(CCOCC3)C2)c(C(=O)Nc2ccc(C(=O)N3CCc4cc(C(=O)NCc5ccccn5)sc4-c4ncccc43)cc2)c1 [Example 26]	> 8.00
Cc1cccc(F)c1NC(=O)c1cc2c(s1)-c1ncc(F)cc1N(C(=O)c1ccc(NC(=O)c3cccnc3N3CC4(CCOCC4)C3)cc1)CC2 [Example 61]	> 8.00
Cc1cnc(N2CCC3(CC2)COC3)c(C(=O)Nc2ccc(C(=O)N3CCc4cc(C(=O)Nc5c(C)cccc5C#N)sc4-c4ncccc43)cc2)c1 [Example 92]	7.30 to 8.00
Cc1ccc(C(=O)Nc2ccc(C(=O)N3CCc4cc(C(=O)Nc5c(F)cc(F)cc5F)sc4-c4ncccc43)cc2)c(N2CC3(CCOCC3)C2)n1 [Example 40]	> 8.00
Cc1cnc(N2CC3(CCOCC3)C2)c(C(=O)Nc2ccc(C(=O)N3CCc4cc(C(=O)Nc5c(Cl)cccc5Cl)sc4-c4ncc(F)cc43)cc2)c1 [Example 66]	> 8.00
Cc1cnc(N2CC3(CCOCC3)C2)c(C(=O)Nc2ccc(C(=O)N3CCc4cc(C(=O)Nc5cccnc5)sc4-c4ncccc43)cc2)c1 [Example 20]	> 8.00

Now from value to compound:

pEC50	Structure (SMILES)
7.30 to 8.00	O=C(Nc1ccc(C(=O)N2CCc3cc(-c4nc5ccccc5[nH]4)oc3-c3ncc(F)cc32)cc1)c1cc2c(nc1N1CC3(CCOCC3)C1)CCC2 [Example 108]
7.30 to 8.00	Cc1ccc2c(n1)-c1sc(C(=O)Nc3ncccc3F)cc1CCN2C(=O)c1ccc(NC(=O)c2ccc(C)nc2N2CC3(CCOCC3)C2)cc1 [Example 146]
> 8.00	Cc1cnc(N2CC3(CCOCC3)C2)c(C(=O)Nc2ccc(C(=O)N3CCc4cc(C(=O)Nc5c(F)cccc5F)sc4-c4ncc(C)cc43)cc2)c1 [Example 133]
< 7.30	Cc1cnc(N2CC3(CCOCC3)C2)c(C(=O)Nc2ccc(C(=O)N3CCc4cc(C(=O)Nc5c(F)cccc5C(F)(F)F)sc4-c4nc(C)ccc43)cc2)c1 [Example 143]
7.30 to 8.00	Cc1cnc(N2CC3(CCOCC3)C2)c(C(=O)Nc2ccc(C(=O)N3CCc4cc(-c5nc6cccc(F)c6[nH]5)sc4-c4cc(C)sc43)cc2)c1 [Example 131]
7.30 to 8.00	Cc1cnc(N2CC3(CCOCC3)C2)c(C(=O)Nc2ccc(C(=O)N3CCc4cc(C(=O)Nc5c(F)cccc5F)sc4-c4nc(C)ccc43)cc2)c1 [Example 138]
> 8.00	Cc1cnc(N2CC3(CCOCC3)C2)c(C(=O)Nc2ccc(C(=O)N3CCc4cc(NC(=O)c5ccccc5)sc4-c4ncccc43)cc2)c1 [Example 155]
< 7.30	Cc1cnc(N2CC3(CCOCC3)C2)c(C(=O)Nc2ccc(C(=O)N3CCc4cc(C(=O)Nc5c(F)cccc5Cl)oc4-c4cccnc43)cc2)c1 [Example 113]
7.30 to 8.00	Cc1cnc(N2CC3(CCOCC3)C2)c(C(=O)Nc2ccc(C(=O)N3CCc4cc(-c5ccc[nH]c5=O)oc4-c4ncc(F)cc43)cc2)c1 [Example 109]
< 7.30	Cc1cnc(N2CC3(CCOCC3)C2)c(C(=O)Nc2ccc(C(=O)N3CCc4cc(C(=O)Nc5c(F)cc(F)cc5F)sc4-c4cc(C)sc43)cc2)c1 [Example 129]
> 8.00	Cc1cnc(N2CC3(CCOCC3)C2)c(C(=O)Nc2ccc(C(=O)N3CCc4cc(NC(=O)c5c(C)cccc5F)sc4-c4ncccc43)cc2)c1 [Example 152]
> 8.00	O=C(Nc1c(F)cccc1Cl)c1cc2c(o1)-c1ncc(F)cc1N(C(=O)c1ccc(NC(=O)c3cc4c(nc3N3CC5(CCOCC5)C3)CCC4)cc1)CC2 [Example 106]
> 8.00	Cc1cnc(N2CCC3(CC2)COC3)c(C(=O)Nc2ccc(C(=O)N3CCc4cc(C(=O)Nc5c(C)cccc5F)sc4-c4ncccc43)cc2)c1 [Example 98]
7.30 to 8.00	Cc1cnc(N2CC3(CCOCC3)C2)c(C(=O)Nc2ccc(C(=O)N3CCc4cc(C(=O)Nc5c(F)cccc5F)oc4-c4ncccc43)cc2)c1 [Example 115]
> 8.00	Cc1cnc(N2CC3(CCOCC3)C2)c(C(=O)Nc2ccc(C(=O)N3CCc4cc(NC(=O)c5ccccc5F)sc4-c4ncccc43)cc2)c1 [Example 156]
> 8.00	Cc1cnc2c(c1)N(C(=O)c1ccc(NC(=O)c3cccnc3N3CC4(CCOCC4)C3)cc1)CCc1cc(C(=O)Nc3c(C)cccc3F)sc1-2 [Example 161]
< 7.30	Cc1ccc2c(n1)-c1sc(C(=O)Nc3c(F)cccc3Cl)cc1CCN2C(=O)c1ccc(NC(=O)c2ccc(C)nc2N2CC3(CCOCC3)C2)cc1 [Example 148]
7.30 to 8.00	Cc1cnc(N2CC3(CCOCC3)C2)c(C(=O)Nc2ccc(C(=O)N3CCc4cc(-c5nc6ccccc6[nH]5)oc4-c4ncccc43)cc2)c1 [Example 118]
7.30 to 8.00	Cc1cnc(N2CCC3(CC2)COC3)c(C(=O)Nc2ccc(C(=O)N3CCc4cc(C(=O)Nc5ncccc5F)sc4-c4ncccc43)cc2)c1 [Example 95]
7.30 to 8.00	Cc1cnc(N2CC3(CCOCC3)C2)c(C(=O)Nc2ccc(C(=O)N3CCc4cc(C(=O)Nc5c(C)cccc5F)sc4-c4nc(C)ccc43)cc2)c1 [Example 139]
